One data set addresses human LSD1 (Homo sapiens, UniProt O60341). Kind of data set: In vitro enzyme activity screening against LSD1 (HRP/Amplex Red fluorescence coupling enzyme method). The note with it: human LSD1, histone H3K4me peptide substrate 20 μM. It is filed as biochemical. The protocol:
The purpose of this test was to detect the in vitro inhibitory activity of the compounds against LSD1. The enzyme used in this test was human LSD1, the standard substrate was histone H3K4me peptide (20 μM), the fluorescence coupling enzyme method was used to determine the activity of the compound by combining horseradish peroxidase (HRP) and fluorescent reagent Amplex Red to detect the H2O2 generation as a result of the reaction of LSD1. Compounds were tested in 10-dose IC50 mode with a 3-fold serial dilution starting at 10 μM. The enzyme and […] to start the reaction. Fluorescence detector: Envision, excitation wavelength: Ex/Em=530/590 […]

A further data set has as its system NCI-H1417 cells. The data set can be described thus: Antiproliferation activity on NCI-H1417 cells (CellTiter-Glo, 10 days). It is filed as cell-based, human. The note with it: incubated for 10 days. Here is the method: Experimental purpose: to detect the antiproliferation activity of the compounds on NCI-H1417 cells.
Experimental materials: RPMI 1640 culture medium, fetal bovine serum, Promega CellTiter-Glo reagent. NCI-H1417 cell line purchased from ATCC. Envision multi-label reader (PerkinElmer).
Experimental method: the compounds were dissolved to 10 mM, then the compounds were diluted 5 times with DMSO in a compound plate, the compounds were diluted 3-fold with Bravo from a starting concentration of 2 mM to the 10th concentration, 250 nL of the solutions were transferred to the upper and lower duplicate wells on a blank 384 cell plate by Echo transfer plate, cell suspension of per well/1000 cells/50 μL was added to the transferred 250 nL DMSO/compound, the compounds were diluted 200-fold, i.e., the initial action concentration was 10 μM. The cell plate was placed in a carbon dioxide incubator and incubated for 10 days. 25 μL of Promega CellTiter-Glo reagent was added to each well on the cell plate and was shaken at room temperature for 10 minutes to stabilize the luminescence signal. Readings were performed by PerkinElmer Envision multi-label analyzer.
Data analysis: the equation (Max-Ratio)/(Max-Min)*100% was used to convert the original data into the inhibition rate, the value of IC50 can be obtained by curve fitting of four-parameters (the 205 mode in XLFITS, iDBS).
A general note: Cellular ATP, detected with luciferase, serves as a proxy for viable cell number.

In the next data set the test system is HL60 cells. Kind of data set: Antiproliferation activity on HL60 cells (CellTiter-Glo, 6 days). The settings on record: incubated for 6 days. It is filed as cell-based. An excerpt:
Experimental purpose: to detect the antiproliferation activity of the compound to be tested on HL60 cells.
Experimental materials: RPMI-1640 culture medium, fetal bovine serum, penicillin/streptomycin antibiotics purchased from Wisent. CellTiter-Glo (chemiluminescent cell viability assay reagent) reagents purchased from Promega. HL60 cell line purchased from Nanjing Cobioer Co., Ltd. Nivo multi-label reader (PerkinElmer).
Experimental method: HL60 cells were planted in a white 384-well plate, 40 μL of cell suspension per well, 600 HL60 cells were contained therein. The cell plate was placed in a carbon dioxide incubator for overnight culture. The compounds to be tested were diluted 5-fold with a pipet until the 10th concentration, i.e., diluted from 2 mM to 1.024 nM, double duplicate well experiment was set. 78 μL of the culture medium was added to an intermediate plate, and then 2 μL per well of the serially diluted compounds were transferred to the corresponding positions on the intermediate plate, after mixing, 10 μL per well was transferred to the cell plate. The cell plate was incubated in a carbon dioxide incubator for 6 days. Another cell plate was prepared and the signal value on the day of dosing was read as the maximum value (Max value in the equation below) to participate in the data analysis. 20 μL of chemiluminescent cell viability assay reagent was added to each well of this cell plate, which was incubated at room temperature for 10 minutes to stabilize the luminescence signal. The multi-label reader was used for reading.
(§1) Data analysis: the equation (Sample-Min)/(Max-Min)*100% was used to convert the original data into the inhibition rate, the IC50 value can be obtained by curve fitting of four-parameters (“log(inhibitor) vs. response—Variable slope” mode in GraphPad Prism)).

The test system of a further data set is MV-4-11 cells. The data set can be described thus: Antiproliferation activity on MV-4-11 cells (CellTiter-Glo, 6 days). It counts as cell-based. The settings on record: incubated for 6 days.
Source text: Experimental purpose: to detect the antiproliferation activity of the compound to be tested on MV-4-11 cells.
Experimental materials: IMDM culture medium, fetal bovine serum, penicillin/streptomycin antibiotics purchased from Wisent. CellTiter-Glo (chemiluminescent cell viability assay reagent) reagents purchased from Promega. MV-4-11 cell line was purchased from Nanjing Cobioer Co., Ltd. Nivo Multi-Marker Analyzer (PerkinElmer).
Experimental method: MV-4-11 cells were planted in a white 96-well plate, 80 μL of cell suspension per well, which contained 6000 MV-4-11 cells. The cell plate was placed in a carbon dioxide incubator for overnight culture.
The compounds to be tested were diluted 5-fold with a pipet until the 8th concentration, i.e., diluted from 2 mM to 25.6 nM, double duplicate well experiment was set. 78 μL of the culture medium was added to an intermediate plate, and then 2 μL per well of the serially diluted compounds were transferred to the corresponding positions on the intermediate plate, after mixing, 20 μL per well was transferred to the cell plate. The cell plate was incubated in a carbon dioxide incubator for 6 days. Another cell plate was prepared and the signal value on the day of dosing was read as the maximum value (Max value in the equation below) to participate in the data analysis. 25 μL of the chemiluminescent cell viability assay reagent was added to each well of this cell plate, which was incubated at room temperature for 10 minutes to stabilize the luminescence signal. The multi-label analyzer was used for reading.
as §1

Data set [1] is described as follows: In vivo pharmacokinetics in CD-1 mice. The note with it: male CD-1 mice; for half-life / clearance / Vd: iv; for half-life / clearance / Vd / Half-life T1/2 (IV): 1 mg/kg; for half-life / Half-life T1/2 (IV): IV 1 mg/kg; for half-life: read-out: Half-life T1/2 (IV) (converted); for clearance / Vd / Cmax / Clearance CL / Volumes of distribution Vdss: study doses 1 mg/kg intravenous, 2 mg/kg oral; for clearance: read-out: Clearance CL; for Vd: read-out: Volumes of distribution Vdss; for Cmax: route not given, read-out: Max concentration Cmax; for AUC(0-t) / bioavailability: po; for AUC(0-t) / bioavailability / The area under the plasma concentration-time curve AUC0-last PO: 2 mg/kg; for AUC(0-t) / The area under the plasma concentration-time curve AUC0-last PO: PO 2 mg/kg; for AUC(0-t): read-out: The area under the plasma concentration-time curve AUC0-last PO; for bioavailability / Bioavailability F: oral 2 mg/kg vs intravenous 1 mg/kg; for bioavailability: read-out: Bioavailability F. The protocol: CD-1 mice (male, 7-9 weeks old, Shanghai Slac)
The rodent pharmacokinetic characteristics after intravenous injection and oral administration of the compounds were tested by standard protocols, in the experiment, the candidate compounds were formulated into clear solutions and administrated to mice via a single intravenous injection and oral administration. The vehicle for intravenous injection and oral administration was a mixed solution of 10% of dimethyl sulfoxide and 90% of 10% hydroxypropyl β cyclodextrin. This project used four male CD-1 mice, two mice were administered intravenously, with a dose of 1 mg/kg, and plasma samples were collected at 0 hour (before administration) and 0.0833, 0.25, 0.5, 1, 2, 4, 8, 24 hours after administration. The other two mice were orally administered by gavage, with a dose of 2 mg/kg, plasma samples were collected at 0 hour (before administration) and 0.25, 0.5, 1, 2, 4, 8, 24 hours after administration, whole blood samples were collected within 24 hours, which were centrifuged at 3000 g for 15 minutes, and the supernatants were separated to obtain plasma samples, 4 times volume of acetonitrile solutions containing internal standard were added to precipitate the protein, the mixtures were centrifuged to obtain the supernatants, the supernatants were added with water of equal volume and centrifuged again to take the supernatant for injection, and the blood drug concentration was quantitatively analyzed by the LC-MS/MS analysis method, and pharmacokinetic parameters were calculated, such as max concentration (Cmax), clearance (CL), half-life (T1/2), volumes of distribution (Vdss), the area under the plasma concentration-time curve (AUC0-last), bioavailability (F) etc.

Structures can show the parent of a compound that is named as a salt. Where two headings read alike, the source gives them in different places.

Consider `O=C(O)c1ccc2cc(CN3CCC4(CC3)CC(N[C@@H]3C[C@H]3c3ccccc3)CO4)ccc2c1` (stereo partly drawn) [Hydrochloride of the compound 17], for which the IC50 on human LSD1 amounted to 70.6 nM; in the data set on NCI-H1417 cells (Homo sapiens, NCI-H1417, 240 h), 0.65 nM; in the data set with HL60 cells (Homo sapiens, HL-60, 144 h), 0.78 nM; in the data set with MV-4-11 cells (Homo sapiens, MV4-11, 144 h), 2.86 nM.
For the compound `O=C(O)c1ccc(CCN2CCC3(CC2)CC(N[C@@H]2C[C@H]2c2ccccc2)CO3)cc1` (stereo partly drawn) [Hydrochloride of the compound 19], the 50% inhibitory concentration (IC50) was 208 nM at human LSD1; 6.95 nM with NCI-H1417 cells (Homo sapiens, NCI-H1417, 240 h); 1.46 nM in the data set with HL60 cells (Homo sapiens, HL-60, 144 h); 4.41 nM with MV-4-11 cells (Homo sapiens, MV4-11, 144 h).
Take `O=C(O)c1ccc(CN2CCC3(CC2)CC(N[C@@H]2C[C@H]2c2ccccc2)CO3)cn1` (stereo partly drawn) [Hydrochloride of the compound 20]: the IC50 on human LSD1 is 242 nM. Also, the IC50 with NCI-H1417 cells (Homo sapiens, NCI-H1417, 240 h) was determined as 3.99 nM. Besides, half-maximal inhibition in the data set with HL60 cells (Homo sapiens, HL-60, 144 h) (IC50) was put at 8.99 nM. This compound also showed an IC50 in the data set with MV-4-11 cells (Homo sapiens, MV4-11, 144 h) of 9.56 nM. In data set [1] (male, CD-1, mouse, plasma), the half-life was 54.3 min, the clearance is 19.7 mL/min/kg, the Vd worked out at 0.752 L/kg and the Cmax was found to be 714 nM. Further, in data set [1] (male, CD-1, mouse, plasma), the AUC(0-t) stood at 1.34 µM·h and the bioavailability worked out at 29%.
As to `N#Cc1ccc(CN2CCC3(CC2)CC(N[C@@H]2C[C@H]2c2ccccc2)CO3)cc1` (stereo partly drawn) [Hydrochloride of the compound 21], the IC50 turned out to be 92.2 nM at human LSD1; 1.12 nM in the data set with NCI-H1417 cells (Homo sapiens, NCI-H1417, 240 h); 1.17 nM with HL60 cells (Homo sapiens, HL-60, 144 h); 0.46 nM in the data set on MV-4-11 cells (Homo sapiens, MV4-11, 144 h).
As to `O=C(O)CC1(N2CCC3(CC2)CC(N[C@@H]2C[C@H]2c2ccccc2)CO3)CNC1` (stereo partly drawn) [Hydrochloride of the compound 32], the 50% inhibitory concentration (IC50) on human LSD1 worked out at 1160 nM; with NCI-H1417 cells (Homo sapiens, NCI-H1417, 240 h), 3.97 nM; in the data set with HL60 cells (Homo sapiens, HL-60, 144 h) it was 0.55 nM; with MV-4-11 cells (Homo sapiens, MV4-11, 144 h), 1.9 nM.
In turn, `NC1(C(=O)N2CCC3(CC2)CC(N[C@@H]2C[C@H]2c2ccccc2)CO3)CC1` (stereo partly drawn) [Hydrochloride of the compound 34] yielded an IC50 at human LSD1 of 38.4 nM. In the data set with NCI-H1417 cells (Homo sapiens, NCI-H1417, 240 h), this compound yielded an IC50 of 4.38 nM. This compound yielded a concentration for half-maximal inhibition (IC50) in the data set on HL60 cells (Homo sapiens, HL-60, 144 h) of 1.92 nM. Moreover, in the data set with MV-4-11 cells (Homo sapiens, MV4-11, 144 h), 1.37 nM corresponded to half-maximal inhibition (IC50). Also, in data set [1] (male, CD-1, mouse, plasma), the half-life was 83.4 min, the clearance amounted to 25.3 mL/min/kg, the Vd stood at 2.09 L/kg and the Cmax was 1150 nM. Also, in data set [1] (male, CD-1, mouse, plasma), the AUC(0-t) came out at 2.14 µM·h and the bioavailability is 58.3%.
For the compound `O=C(O)C1(CN2CCC3(CC2)CC(N[C@@H]2C[C@H]2c2ccccc2)CO3)CCC1` (stereo partly drawn) [Hydrochloride of the compound 30], the IC50 was determined as 1140 nM at human LSD1; 91.4 nM in the data set on NCI-H1417 cells (Homo sapiens, NCI-H1417, 240 h); 337 nM in the data set with HL60 cells (Homo sapiens, HL-60, 144 h); 33.1 nM with MV-4-11 cells (Homo sapiens, MV4-11, 144 h).
`O=C(O)c1ccc(CN2CCC3(CC2)CC(N[C@@H]2C[C@H]2c2ccccc2)CO3)cc1` (stereo partly drawn) [Hydrochloride of the compound 15]: the midpoint of inhibition at human LSD1, the IC50, lay at 353 nM. In the data set with NCI-H1417 cells, this compound registered a half-inhibitory concentration (IC50) of 13.1 nM. In the data set on HL60 cells, this compound showed an IC50 of 13.8 nM. In addition, in the data set with MV-4-11 cells, half-maximal inhibition (IC50) was put at 13.2 nM. In addition, in data set [1], the “Half-life T1/2 (IV)” value stood at 29.4 min, the “The area under the plasma concentration-time curve AUC0-last PO” value was determined as 0.765 µM·h, the “Bioavailability F” value turned out to be 39.1% and the “Clearance CL” value is recorded as 41.8 mL/min/kg. In addition, in data set [1], the “Volumes of distribution Vdss” value is listed as 0.835 L/kg and the Cmax stood at 919 nM.
`O=C(O)c1ccc(CN2CCC3(CC2)CC(N[C@@H]2C[C@H]2c2ccccc2)CO3)cc1` (stereo partly drawn) [Hydrochloride of the compound 16]: at human LSD1, the midpoint of inhibition, the IC50, lay at 262 nM. Moreover, the half-inhibitory concentration (IC50) in the data set with NCI-H1417 cells (Homo sapiens, NCI-H1417, 240 h) was determined as 12.1 nM. Besides, in the data set on HL60 cells (Homo sapiens, HL-60, 144 h), it took 8.46 nM to reach half-maximal inhibition (IC50). Besides, the IC50 in the data set with MV-4-11 cells amounted to 13.7 nM. In data set [1], the “Half-life T1/2 (IV)” value amounted to 34.7 min, the “The area under the plasma concentration-time curve AUC0-last PO” value worked out at 0.891 µM·h, the “Bioavailability F” value is 36.9% and the “Clearance CL” value came to 33.8 mL/min/kg. Also, in data set [1], the “Volumes of distribution Vdss” value came out at 0.88 L/kg and the Cmax worked out at 860 nM.

As a reminder, the IC50 is the concentration that inhibits the measured activity by half. Read a high IC50 as a need for much substance. One may read the bioavailability as dose-corrected exposure relative to a reference, in per cent.

For the origin of these results see US11649245B2, “Cyclopropylamine compound as LSD1 inhibitor and use thereof” (HELIOEAST PHARMACEUTICAL CO., LTD., priority 2018, dated 2023).
